# Measured values as given in US8716289B2, “Carbamate derivatives of alkyl-heterocycles, preparation thereof and therapeutic use thereof” (Sanofi, priority 2008, dated 2014).
row,melting point,Compound
1,117 to 119 °C,"CCOC(=O)c1cc(COC(=O)NCCC2CCN(c3ccc4cc(Cl)ccc4n3)CC2)on1 [Compound 71, ethyl 5-{2-[1-(6-chloroquinolin-2-yl)piperidin-4-yl]-ethylcarbamoyloxymethyl}isoxazole-3-carboxylate]"
2,154 to 156 °C,"Cn1ccc(COC(=O)NCCC2CCN(c3ccc(-c4ccc(F)cc4)cn3)CC2)n1 [Compound 8, 1-methyl-1H-pyrazol-3-ylmethyl 2-[5′-(4-fluorophenyl)-3,4,5,6-tetrahydro-2H-[1,2′]bipyridinyl-4-yl]ethylcarbamate]"
3,168 to 170 °C,"CN(C)C1(CCNC(=O)OC(c2nccn2C)C(F)(F)F)CN(c2nnc(Cl)c3ccccc23)C1 (racemic) [Compound 63, 2,2,2-trifluoro-1-(1-methyl-1H-imidazol-2-yl)ethyl {2-[1-(4-chlorophthalazin-1-yl)-3-dimethylaminoazetidin-3-yl]ethyl}-carbamate]"
4,81 to 83 °C,"CN(C)C(=O)c1cc(COC(=O)NCCC2CCN(c3cccc(-c4ccc(F)cc4)n3)CC2)on1 [Compound 27, 3-dimethylcarbamoylisoxazol-5-ylmethyl 2-[6′-(4-fluorophenyl)-3,4,5,6-tetrahydro-2H-[1,2′]bipyridinyl-4-yl]-ethylcarbamate]"
5,150 to 152 °C,"CNC(=O)c1cc(COC(=O)NCCC2CCN(c3cncc(-c4ccc(F)cc4)n3)CC2)on1 [Compound 32, 3-methylcarbamoylisoxazol-5-ylmethyl 2-{1-[6-(4-fluorophenyl)pyrazin-2-yl]piperidin-4-yl}ethylcarbamate]"
6,97 to 99 °C,CC(C)CC(OC(=O)NCCC1CCN(c2ccc3cc(Cl)ccc3n2)CC1)c1ccoc1 (racemic)
7,104 to 106 °C,"CC(C)c1nc(COC(=O)NCC2CCN(c3nccc(C(F)(F)F)n3)CC2)no1 [Compound 55, 5-isopropyl[1,2,4]oxadiazol-3-ylmethyl [1-(4-trifluoromethylpyrimidin-2-yl)piperidin-4-yl]methylcarbamate]"
8,159 to 161 °C,"CNC(=O)c1cc(COC(=O)NCC2CCN(c3nnc(Cl)c4ccccc34)C2)on1 (racemic) [Compound 79, 3-methylcarbamoylisoxazol-5-ylmethyl (±)[1-(4-chlorophthalazin-1-yl)pyrrolidin-3-ylmethyl]carbamate]"
9,139 to 140 °C,"O=C(NCCC1CCN(c2ccc3cc(Cl)ccc3n2)CC1)OCc1cc(-c2ccc(Cl)cc2)no1 [Compound 3, 3-(4-chlorophenyl)isoxazol-5-ylmethyl 2-[1-(6-chloroquinolin-2-yl)piperidin-4-yl]ethylcarbamate]"
10,208 to 210 °C,"CNC(=O)c1cc(COC(=O)NC2CCN(c3nnc(Cl)c4ccccc34)CC2)on1 [Compound 75, 3-methylcarbamoylisoxazol-5-ylmethyl [1-(4-chlorophthalazin-1-yl)piperidin-4-yl]carbamate]"
11,180 to 182 °C,"CNC(=O)c1cc(COC(=O)NCCC2CCN(c3ccc4cc(F)ccc4n3)CC2)on1 [Compound 25, 3-methylcarbamoylisoxazol-5-ylmethyl 2-[1-(6-fluoroquinolin-2-yl)piperidin-4-yl]ethylcarbamate]"
12,139 to 141 °C,"CC(C)c1nc(COC(=O)NCC2CCN(c3nnc(Cl)c4ccccc34)CC2)no1 [Compound 59, 5-isopropyl[1,2,4]oxadiazol-3-ylmethyl [1-(4-chlorophthalazin-1-yl)piperidin-4-yl]methylcarbamate]"
13,152 to 153 °C,"O=C(NCCC1CCN(c2ccc3cc(Cl)ccc3n2)CC1)OCc1nnc(-c2ccc(Cl)cc2)o1 [Compound 13, 5-(4-chlorophenyl)[1,3,4]oxadiazol-2-ylmethyl 2-[1-(6-chloroquinolin-2-yl)piperidin-4-yl]ethylcarbamate]"
14,96 to 98 °C,"CC(C)c1noc(COC(=O)NCCC2CCN(c3ccc(-c4ccc(F)cc4)cn3)CC2)n1 [Compound 7, 3-isopropyl[1,2,4]oxadiazol-5-ylmethyl 2-[5′-(4-fluorophenyl)-3,4,5,6-tetrahydro-2H-[1,2′]bipyridinyl-4-yl]-ethylcarbamate]"
15,110 to 112 °C,"Cc1onc(-c2ccccc2)c1COC(=O)NCCC1CCN(c2ccc3cc(Cl)ccc3n2)CC1 [Compound 6, 5-methyl-3-phenylisoxazol-4-ylmethyl 2-[1-(6-chloroquinolin-2-yl)piperidin-4-yl]ethylcarbamate]"
16,197 to 199 °C,"CNC(=O)c1cc(COC(=O)NC2CCN(c3nccc(C(F)(F)F)n3)CC2)on1 [Compound 70, 3-methylcarbamoylisoxazol-5-ylmethyl [1-(4-trifluoromethylpyrimidin-2-yl)piperidin-4-yl]carbamate]"
17,132 to 134 °C,"CCOC(=O)c1cc(COC(=O)NCC2(F)CCN(c3ccc4cc(Cl)ccc4n3)CC2)on1 [Compound 56, ethyl 5-[1-(6-chloroquinolin-2-yl)-4-fluoropiperidin-4-ylmethylcarbamoyloxymethyl]isoxazole-3-carboxylate]"
18,172 to 174 °C,"NC(=O)c1cc(COC(=O)NCCC2CCN(c3cccc(-c4ccc(F)cc4)n3)CC2)on1 [Compound 24, 3-carbamoylisoxazol-5-ylmethyl 2-[6′-(4-fluorophenyl)-3,4,5,6-tetrahydro-2H-[1,2′]bipyridinyl-4-yl]ethylcarbamate]"
19,114 to 116 °C,"CN(C)C(=O)c1cc(COC(=O)NCCC2CCN(c3ccc4cc(Cl)ccc4n3)CC2)on1 [Compound 31, 3-dimethylcarbamoylisoxazol-5-ylmethyl 2-[1-(6-chloroquinolin-2-yl)piperidin-4-yl]ethylcarbamate]"
20,149 to 151 °C,"CN(C)C(=O)c1cc(COC(=O)NCCC2CCN(c3ccc(-c4ccc(F)cc4)cn3)CC2)on1 [Compound 30, 3-dimethylcarbamoylisoxazol-5-ylmethyl 2-[5′-(4-fluorophenyl)-3,4,5,6-tetrahydro-2H-[1,2′]bipyridinyl-4-yl]-ethylcarbamate]"
21,180 to 182 °C,"O=C(NCCC1CCN(c2ccc3cc(Cl)ccc3n2)CC1)OCc1cc(C(=O)O)no1 [Compound 53, 5-{2-[1-(6-chloroquinolin-2-yl)piperidin-4-yl]ethylcarbamoyloxymethyl}isoxazole-3-carboxylic acid]"
22,155.5 to 157.5 °C,"CNC(=O)c1cc(COC(=O)NCCC2CCN(c3cccc(-c4ccc(F)cc4)n3)CC2)on1 [Compound 22, 3-methylcarbamoylisoxazol-5-ylmethyl 2-[6′-(4-fluoro-phenyl)-3,4,5,6-tetrahydro-2H-[1,2′]bipyridinyl-4-yl]-ethylcarbamate]"
23,206 to 208 °C,"NC(=O)c1coc(COC(=O)NCCC2CCN(c3ccc(-c4ccc(F)cc4)cn3)CC2)n1 [Compound 21, 4-carbamoyloxazol-2-ylmethyl 2-[5′-(4-fluorophenyl)-3,4,5,6-tetrahydro-2H-[1,2′]bipyridinyl-4-yl]ethylcarbamate]"
24,101 to 103 °C,CC(C)CC(OC(=O)NCCC1CCN(c2cccc(-c3ccc(F)cc3)n2)CC1)c1ccoc1 (racemic)
25,160 to 162 °C,"CNC(=O)c1cc(COC(=O)NCCC2(C)CCN(c3nccc(C(F)(F)F)n3)CC2)on1 [Compound 72, 3-methylcarbamoylisoxazol-5-ylmethyl {2-[4-methyl-1-(4-trifluoromethylpyrimidin-2-yl)piperidin-4-yl]ethyl}carbamate]"
